Data set [1] in a line: Apparent elimination half life in Wistar rat at 1 mg/kg, iv administered as single dose. The data set is classed as ADME, organism-based. Particulars: in vivo, read-out: betat1/2(app) (converted); call rule not given here.
Data set [2] is described as follows: Protein binding in human plasma at 5000 ng/ml by HPLC analysis. Format: ADME, cell-free. The note with it: read-out: PPB (converted).
The nature of data set [3]: Protein binding in human plasma at 2500 ng/ml by HPLC analysis. Format: ADME, cell-free. The note with it: read-out: PPB (converted).
Data set [4] in a line: Protein binding in human plasma at 100 ng/ml by HPLC analysis. Format: ADME, cell-free. The note with it: read-out: PPB (converted).
Data set [5] in a line: Protein binding in human plasma by HPLC analysis. Format: ADME, cell-free.
The nature of data set [6]: Protein binding in rat plasma at 2500 ng/ml by HPLC analysis. The data set is classed as ADME, cell-free. Particulars: read-out: PPB (converted).
Data set [7] can be described thus: AUC (0 to t) in Wistar rat at 20 mg/kg, po administered as single dose. The data set is classed as ADME, organism-based. The note with it: in vivo.
A short description of data set [8]: Oral bioavailability in Wistar rat at 20 mg/kg administered as single dose. Format: ADME, organism-based. The note with it: in vivo.
A short description of data set [9]: Time at which plasma concentration stays above in vitro Mycobacterium DNA gyrase IC50 in Wistar rat at 20 mg/kg, po. The data set is classed as ADME, organism-based. The note with it: in vivo.
Data set [10] can be described thus: Total clearance in Wistar rat at 1 mg/kg, iv administered as single dose. Particulars: in vivo. Format: ADME, organism-based.
Data set [11] is described as follows: Protein binding in rat plasma at 5000 ng/ml by HPLC analysis. The data set is classed as ADME, cell-free. Particulars: read-out: PPB (converted).
The nature of data set [12]: Volume of distribution in Wistar rat at 1 mg/kg, iv administered as single dose. Format: ADME, organism-based. The note with it: in vivo.
A short description of data set [13]: AUC (0 to t) in Wistar rat at 1 mg/kg, iv administered as single dose. The data set is classed as ADME, organism-based. The note with it: in vivo.
Data set [14] in a line: Cmax in Wistar rat at 20 mg/kg, po administered as single dose. Format: ADME, organism-based. Further details: dose 20 mg/kg, route oral. The note with it: in vivo.
The subject of data set [15] is Mycobacterium tuberculosis. Description: microbe, parasite or virus in culture. Particulars: H37Rv, 168 h.
Description: Antimycobacterial activity against Mycobacterium tuberculosis H37Rv after 7 days by microplate alamar blue assay
A short description of data set [16]: Tmax in Wistar rat at 20 mg/kg, po administered as single dose. The data set is classed as ADME, organism-based. The note with it: in vivo.
Data set [17] deals with DNA gyrase subunit B (Mycobacterium smegmatis (strain ATCC 700084 / mc(2)155), UniProt A0QNE0).
Chain of DNA gyrase subunit B (Mycobacterium smegmatis (strain ATCC 700084 / mc(2)155), UniProt A0QNE0) (A0QNE0 whole entry): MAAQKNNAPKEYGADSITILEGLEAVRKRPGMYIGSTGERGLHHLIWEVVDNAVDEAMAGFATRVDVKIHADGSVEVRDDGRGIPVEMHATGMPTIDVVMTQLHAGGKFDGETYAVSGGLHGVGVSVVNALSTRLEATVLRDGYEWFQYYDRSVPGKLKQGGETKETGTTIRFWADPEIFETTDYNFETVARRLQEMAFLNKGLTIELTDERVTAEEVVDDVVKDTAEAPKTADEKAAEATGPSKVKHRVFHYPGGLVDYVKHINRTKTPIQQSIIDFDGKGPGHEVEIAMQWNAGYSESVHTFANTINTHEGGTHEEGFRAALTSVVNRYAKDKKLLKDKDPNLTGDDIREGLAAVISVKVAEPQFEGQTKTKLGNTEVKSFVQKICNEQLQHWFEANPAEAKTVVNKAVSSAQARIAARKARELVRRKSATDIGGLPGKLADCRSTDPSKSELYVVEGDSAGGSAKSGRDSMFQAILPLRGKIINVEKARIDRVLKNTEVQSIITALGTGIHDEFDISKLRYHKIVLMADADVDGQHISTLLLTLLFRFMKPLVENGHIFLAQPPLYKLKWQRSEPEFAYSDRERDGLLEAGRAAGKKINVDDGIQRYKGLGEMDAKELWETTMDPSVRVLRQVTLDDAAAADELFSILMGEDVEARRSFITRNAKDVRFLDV
Description: Inhibition of Mycobacterium smegmatis 155 6His-tagged DNA gyrase B catalytic domain ATPase activity expressed in Escherichia coli BL21 (DE3) pLysS cells assessed as inorganic phosphate release after 120 mins in presence of ATP by malachite green dye based assay
Data set [18] in a line: Growth inhibition of mouse RAW264.7 cells at 100 uM after 48 hrs by MTT assay. Format: cell-based. Particulars: read-out: GI. (Tetrazolium assays rely on reduction of a dye to a coloured formazan, in cell work by metabolically active cells.)
The target in data set [19] is DNA gyrase subunit B (Mycobacterium smegmatis (strain ATCC 700084 / mc(2)155)) (UniProt A0QNE0). Description: Binding affinity to Mycobacterium smegmatis 155 6His-tagged DNA gyrase B catalytic domain expressed in Escherichia coli BL21 (DE3) pLysS cells assessed as change in melting temperature by SYPRO orange dye based differential scanning fluorimetric analysis. Particulars: Mycolicibacterium smegmatis MC2 155. (In general: Differential scanning fluorimetry follows unfolding on heating by fluorescence.)
Chain of DNA gyrase subunit B (Mycobacterium smegmatis (strain ATCC 700084 / mc(2)155)) (A0QNE0 2-675 limits assumed): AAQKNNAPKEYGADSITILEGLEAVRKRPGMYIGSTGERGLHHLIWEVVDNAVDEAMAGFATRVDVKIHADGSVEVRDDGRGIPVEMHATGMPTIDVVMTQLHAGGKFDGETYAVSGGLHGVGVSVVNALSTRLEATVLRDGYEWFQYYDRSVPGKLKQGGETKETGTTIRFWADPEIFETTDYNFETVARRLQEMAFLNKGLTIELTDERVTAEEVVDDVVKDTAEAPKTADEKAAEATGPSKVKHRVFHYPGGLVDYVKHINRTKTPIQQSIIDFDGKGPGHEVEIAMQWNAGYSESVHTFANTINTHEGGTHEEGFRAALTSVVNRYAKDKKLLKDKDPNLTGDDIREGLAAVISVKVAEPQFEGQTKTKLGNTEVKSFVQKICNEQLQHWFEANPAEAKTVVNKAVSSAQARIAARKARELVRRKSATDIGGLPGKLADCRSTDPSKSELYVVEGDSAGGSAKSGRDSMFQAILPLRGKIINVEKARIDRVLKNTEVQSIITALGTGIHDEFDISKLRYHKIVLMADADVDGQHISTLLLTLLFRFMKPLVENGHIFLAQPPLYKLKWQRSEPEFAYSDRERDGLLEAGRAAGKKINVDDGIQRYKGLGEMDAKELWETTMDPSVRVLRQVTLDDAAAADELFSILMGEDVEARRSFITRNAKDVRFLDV

Data set [20] in a line: Protein binding in rat plasma by HPLC analysis. Format: ADME, cell-free.
Data set [21] is described as follows: Protein binding in rat plasma at 100 ng/ml by HPLC analysis. Particulars: read-out: PPB (converted). The data set is classed as ADME, cell-free.
The nature of data set [22]: AUC (0 to infinity) in Wistar rat at 1 mg/kg, iv administered as single dose. Particulars: in vivo. Further details: dose 1 mg/kg, route intravenous, time infinity. Format: ADME, organism-based.
Data set [23] can be described thus: AUC (0 to infinity) in Wistar rat at 20 mg/kg, po administered as single dose. Format: ADME, organism-based. More on the design: dose 20 mg/kg, time infinity, route oral. The note with it: in vivo.

SMILES strings stand for the structures. Converted amounts (≈) assume the structure as drawn.

As a reminder, the AUC(0-t) is exposure summed from dosing to a finite time, without extrapolation to infinity. Usually bioavailability stands for the share of a dose that reaches the circulation, judged against a reference dose that is usually intravenous. The low end stands for poor availability, the high end for good availability. For orientation: clearance means the rate of elimination divided by the concentration. Read a low clearance as a low capacity for elimination. Broadly, the Vd is a proportionality between amount in the body and measured concentration, not a real space. The low end stands for confinement near the circulation, the high end for extensive tissue distribution. For orientation: Cmax means the peak of the concentration-time curve. The term Tmax denotes the time from dosing to the highest level. The term IC50 denotes the concentration that inhibits the measured activity by half. A high value points to a need for much substance. One may read the ΔTm as the change in melting temperature against a reference sample. By AUC(0-inf) is commonly meant the area under the concentration-time curve extrapolated to infinity. A higher AUC(0-inf) goes with more exposure.

On to `Fc1ccc(NC(=S)N2CCN(c3ccnc4cc(Cl)ccc34)CC2)cc1`, for which, in data set [1], the half-life is 2.04 h. Further, the figures for the fraction unbound at 5000 ng/ml in data set [2] and in data set [11] were 0.057 and 0.046, respectively. The fraction unbound at 2500 ng/ml is 0.064 in [3] and 0.052 in [6]. Further, the figures for the fraction unbound at 100 ng/ml in data set [4] and in [21] were 0.078 and 0.065, respectively. Moreover, the PPB entry in data set [5] and in data set [20] was “Dose-dependent effect” each time. The AUC(0-t) in data set [7] came to 18800 ng·h/mL; in data set [13], 1240 ng·h/mL. Besides, in data set [8], the bioavailability is 71.2%. This compound gave a Time in [9] greater than 6 h. Further, the clearance in [10] is 13.3 mL/min/kg. Besides, the Vd in data set [12] worked out at 0.99 L/kg. The compound also came in with a Cmax in data set [14] of 2910 ng/mL. The MIC in data set [15] came out at 7.8 µM (≈ 3.13 µg/mL). In addition, the Tmax in data set [16] came out at 2.2 h. Also, the IC50 in [17] turned out to be 2500 nM. Also, the inhibition at 48 h, 100 µM in [18] is 23.9%. For the same compound, the ΔTm in [19] stood at 4.1 °C. The AUC(0-inf) in [22] worked out at 1350 ng·h/mL; in data set [23], 19300 ng·h/mL.

Values taken from ChEMBL document CHEMBL3865798, “Engineering another class of anti-tubercular lead: Hit to lead optimization of an intriguing class of gyrase ATPase inhibitors” (Eur J Med Chem, 2016).
